By EC50 is commonly meant the concentration that produces a half-maximal response.

The source of these data is patent US11578055B2, “Triazacyclododecansulfonamide (“TCD”)-based protein secretion inhibitors” (KEZAR LIFE SCIENCES, priority 2018, dated 2023).

Molecules are shown by their SMILES.

Series [1] deals with full length IL-2 (amino acids 1-153) fused to Gaussia Luciferase. Briefly: Dox Induced IL2-FL-Gluc Assay. The class given is cell-based. The conditions noted are these: 24 hr, Dox inducible, 293FRT/TO cells; read-out: 24 hr Dox Inducible IL2FLGluc 293FRT/TO: Mean IC50. A digest of the protocol:
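Compounds in DMSO/media with doxycycline were added to cells plated the previous day and incubated at 37° C, 5% CO2. Cells: stable Flp-In 293 T-REx line, Dox-regulated expression of IL-2 (aa 1-153) fused at its C-terminus to Gaussia luciferase.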

Series [2] is described as follows: In Vitro Microsome Stability Assay (mouse). The class given is in vitro ADME. The note with it: mouse liver microsomes, 30 min w/ NADPH. In a few lines: (§1)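 The value reported is the percentage of parent left after 30 min, calculated from analyte/IS peak-area ratios relative to time zero by LC-MS/MS. Incubations ran at 37° C in 0.1 M potassium phosphate with NADPH and microsomes (stock 20 mg/mL), with compound added from a 0.25 mM DMSO stock. Acetonitrile containing IS stopped the reactions.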

The nature of series [3]: In Vitro Microsome Stability Assay (human). The note with it: human liver microsomes, 30 min w/ NADPH. Format: in vitro ADME. In a few lines:
as §1

For series [4], the system named is HER3 signal sequence plus 4 amino acids fused to Gaussia Luciferase (HER3-ss+4aa/Gaussia Luciferase). Put plainly: Dox Induced HER3-ss-Gluc Assay. The note with it: 24 hr, doxycycline induced, Flp-In 293 T-REx cells; read-out: 24 hr Dox Inducible Her3(ss + 4) Gluc 293FRT/TO: Mean 1050. Format: cell-based. An excerpt: FIp-In 293 T-REx™ cells were transfected with pcDNA™5/FRT/TO plasmid inserted with cDNA encoding Gaussia Luciferase fused to the 3′ end of cDNA encoding HER3 signal sequence plus 4 amino acids (N-[…]-C) (SEQ ID NO: 2). Transfected cells were selected for resistance to the selectable markers Hygromycin and Blasticidin to create a stable cell line that contained the HER3-ss+4aa/Gaussia Luciferase cDNA insert whose expression was regulated under the T-REx™ system. The day before assay, cells were trypsinized and plated in 384-well tissue culture plates. The next day, compound dilutions in DMSO/media containing doxycycline were added to the wells and incubated at 37° C., 5% CO2.
For chemical structures that include one or more stereoisomers, but are illustrated without indicating stereochemistry, the assay data refers to a mixture of stereoisomers.

The test system of series [5] is full length TNFα (amino acids 1-233) fused to Gaussia Luciferase. Put plainly: Dox Induced TNFα-FL-Gluc Assay. The class given is cell-based. The conditions noted are these: 24 hr, Dox inducible, 293FRT/TO cells; read-out: 24 hr Dox Inducible TNFaFLGluc 293FRT/TO: Mean IC50. A digest of the protocol: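 Compounds diluted in DMSO/medium with doxycycline were incubated at 37° C, 5% CO2 with 293 T-REx cells stably carrying a Tet-regulated TNFα(1-233)-Gaussia luciferase construct. Data for structures drawn without stereochemistry refer to stereoisomer mixtures.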

Series [6] in a line: In Vitro Microsome Stability Assay (monkey). The class given is in vitro ADME. The conditions noted are these: monkey liver microsomes, 30 min w/ NADPH. A digest of the protocol: as §1
A general note: Liver microsomes are a subcellular fraction often used to study metabolism.

A short description of series [7]: In Vitro Microsome Stability Assay (rat). The class given is in vitro ADME. The note with it: rat liver microsomes, 30 min w/ NADPH. In a few lines:
as §1

Series [8] relates to multiple myeloma cell line U266B1. Put plainly: U266 Cell Viability Assay. Format: cell-based, human. The conditions noted are these: Homo sapiens, U-266; 48 hr, U266, Celltiter-Glo. In a few lines:
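Viability was measured by CellTiter-Glo luminescence after 48 h compound exposure at 37° C, 5% CO2. The cells were U266B1 multiple myeloma cells grown in RPMI 1640 plus 10% FBS. Where stereochemistry is not shown, values apply to the stereoisomer mixture.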
For orientation: In ATP-based viability assays light output follows the ATP content of the culture.

For series [9], the system named is PD1 signal sequence plus 10 amino acids fused to Gaussia Luciferase (PD1-ss+10aa/Gaussia Luciferase). Put plainly: Dox Induced PD1-ss-Gluc Assay. The class given is cell-based. The note with it: 24 hr, Dox inducible, 293FRT/TO cells; read-out: 24 hr Dox Inducible PD1ssGluc 293FRT/TO: Mean IC50. In a few lines: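 Compound dilutions in DMSO/media containing doxycycline were applied to a stable, inducible 293 T-REx line carrying the luciferase fusion, then incubated at 37 °C, 5% CO2. Where stereochemistry is not drawn, values relate to isomer mixtures.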

The subject of series [10] is multiple myeloma cell line NCl-H929. Briefly: H929 Cell Viability Assay. Format: cell-based, human. The conditions noted are these: Homo sapiens, NCI-H929, 48 h, H929, Celltiter-Glo. A digest of the protocol:
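Viability was determined by CellTiter-Glo luminescence after a 48 h, 37 °C exposure of NCI-H929 cells to serial compound dilutions in medium containing 10% FBS. Where stereochemistry is not shown, values refer to a mix of stereoisomers.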

`COc1ccc([C@@H]2CCCN(S(=O)(=O)N3CCCN(CC4CCCCC4)CCCN(S(=O)(=O)c4ccc(N(C)C)cc4)C[C@H](C)C3)C2)cc1` [A208, 4-{[(3S)-9-(cyclohexylmethyl)-5-{[(3S)-3-(4-methoxyphenyl)piperidin-1-yl]sulfonyl]-3-methyl-1,5,9-triazacyclododecan-1-yl]sulfonyl}-N,N-dimethylaniline]: the IC50 was 0.616 µM in [1], 0.428 µM in [4], more than 25 µM in series [5] and 0.343 µM in series [9]. Besides, the “Liver Microsome Stability-% Left after 30 min w/ NADPH (%) Mouse” value (shortened to “Liver Microsome Stability-% Left … (%) Mouse”) in series [2] is 51.8%. In addition, the “Liver Microsome Stability-% Left after 30 min w/ NADPH (%) Human” value (“Liver Microsome Stability-% Left … (%) Human” below) in [3] came out at 23.3%. Besides, the “Liver Microsome Stability-% Left after 30 min w/ NADPH (%) Monkey” value (from here on “Liver Microsome Stability-% Left … (%) Monkey”) in series [6] amounted to 37.5%. Also, the “Liver Microsome Stability-% Left after 30 min w/ NADPH (%) Rat” value (“Liver Microsome Stability-% Left … (%) Rat” below) in series [7] came out at 68.9%. Also, the EC50 in series [8] and in [10] was more than 25 µM in each case.

On to `COc1cccc(N2CCN(S(=O)(=O)N3CCCN(CC4CCCCC4)CCCN(S(=O)(=O)c4ccc(N(C)C)cc4)C[C@H](C)C3)CC2)c1` [A201, 4-{[(3S)-9-(cyclohexylmethyl)-5-{[4-(3-methoxyphenyl)piperazin-1-yl]sulfonyl}-3-methyl-1,5,9-triazacyclododecan-1-yl]sulfonyl}-N,N-dimethylaniline], for which the IC50 in series [1] came out at 0.283 µM; in series [4] it was 0.211 µM; in [5] it was 7.09 µM; in series [9] it was 0.118 µM. Also, the “Liver Microsome Stability-% Left … (%) Mouse” value in series [2] was 39.1%. Further, the “Liver Microsome Stability-% Left … (%) Human” value in [3] worked out at 32.8%. The “Liver Microsome Stability-% Left … (%) Monkey” value in [6] was found to be 26.5%. For the same compound, the “Liver Microsome Stability-% Left … (%) Rat” value in series [7] stood at 35.4%. Also, the EC50 in series [8] and in series [10] was more than 25 µM each time.

Regarding `COc1cc(F)cc(N2CCN(S(=O)(=O)N3CCCN(CC4CCCCC4)CCCN(S(=O)(=O)c4ccc(N(C)C)cc4)C[C@H](C)C3)C[C@@H]2C)c1` [A194], the IC50 in series [1] is 0.402 µM; in [4], 0.303 µM; in [5], more than 25 µM; in series [9], 0.261 µM. In series [2], the “Liver Microsome Stability-% Left … (%) Mouse” value was found to be 68.5%. Besides, the “Liver Microsome Stability-% Left … (%) Human” value in [3] is listed as 63.6%. The “Liver Microsome Stability-% Left … (%) Monkey” value in series [6] is listed as 65.0%. In addition, the “Liver Microsome Stability-% Left … (%) Rat” value in series [7] was 59.2%. The EC50 in series [8] and in series [10] was more than 25 µM each time.

Consider `COc1ccccc1[C@@H]1CCCN(S(=O)(=O)N2CCCN(CC3CCCCC3)CCCN(S(=O)(=O)c3ccc(N(C)C)cc3)C[C@H](C)C2)C1` [A210], for which the IC50 was 0.447 µM in series [1], 0.343 µM in series [4], more than 25 µM in [5] and 0.203 µM in series [9]. In addition, the “Liver Microsome Stability-% Left … (%) Mouse” value in [2] stood at 76.0%. Also, the “Liver Microsome Stability-% Left … (%) Human” value in series [3] turned out to be 47.4%. Moreover, in series [6], the “Liver Microsome Stability-% Left … (%) Monkey” value amounted to 55.4%. Also, the “Liver Microsome Stability-% Left … (%) Rat” value in series [7] is given as 54.6%. Besides, the EC50 in series [8] and in series [10] was more than 25 µM each time.

For `COc1cc(F)ccc1N1CCN(S(=O)(=O)N2CCCN(CC3CCCCC3)CCCN(S(=O)(=O)c3ccc(N(C)C)cc3)CC3(CC3)C2)CC1` [A193], the IC50 in series [1] was 0.0818 µM; in [4] it was 0.0508 µM; in [5] it was 0.748 µM; in series [9], 0.0238 µM. Moreover, the “Liver Microsome Stability-% Left … (%) Mouse” value in [2] turned out to be 10.1%. For the same compound, the “Liver Microsome Stability-% Left … (%) Human” value in series [3] is given as 34.2%. Also, in [6], the “Liver Microsome Stability-% Left … (%) Monkey” value was determined as 7.72%. Also, the “Liver Microsome Stability-% Left … (%) Rat” value in [7] is 11.3%. For the same compound, the half-maximal effective concentration (EC50) in series [8] is more than 25 µM; in series [10], 6.81 µM.

On to `CC[C@H]1CN(S(=O)(=O)c2ccc(N(C)C)cc2)CCCN(CC2CCCCC2)CCCN(S(=O)(=O)N2CCc3cc(Cl)ccc3C2)C1` [A182], for which the IC50 in series [1] was determined as 0.256 µM; in [4] it was 0.203 µM; in series [5], 1.96 µM; in [9], 0.0788 µM. Besides, in series [2], the “Liver Microsome Stability-% Left … (%) Mouse” value is on record as 61.7%. Also, the “Liver Microsome Stability-% Left … (%) Human” value in [3] was 53.7%. In addition, the “Liver Microsome Stability-% Left … (%) Monkey” value in [6] came out at 41.5%. Moreover, the “Liver Microsome Stability-% Left … (%) Rat” value in series [7] is recorded as 41.9%. The EC50 in [8] and in [10] was more than 25 µM in each case.

As to `COc1ccc(N2CCN(S(=O)(=O)N3CCCN(CC4CCCCC4)CCCN(S(=O)(=O)c4ccc(N(C)C)cc4)C[C@H](C)C3)CC2)cc1` [A199, 4-{[(3S)-9-(cyclohexylmethyl)-5-{[4-(4-methoxyphenyl)piperazin-1-yl]sulfonyl}-3-methyl-1,5,9-triazacyclododecan-1-yl]sulfonyl}-N,N-dimethylaniline], the IC50 in series [1] came to 0.162 µM; in series [4] it was 0.132 µM; in [5], 1.42 µM; in series [9], 0.0808 µM. Further, the “Liver Microsome Stability-% Left … (%) Mouse” value in [2] came out at 23.7%. In series [3], the “Liver Microsome Stability-% Left … (%) Human” value was found to be 8.0%. The “Liver Microsome Stability-% Left … (%) Monkey” value in [6] is on record as 25.5%. Moreover, the “Liver Microsome Stability-% Left … (%) Rat” value in series [7] is 28.3%. Further, the concentration for a half-maximal effect (EC50) in series [8] and in series [10] was more than 25 µM throughout.

For `COc1ccc(N2CCN(S(=O)(=O)N3CCCN(CC4CCCCC4)CCCN(S(=O)(=O)c4ccc(N(C)C)cc4)C[C@H](C)C3)CC2)cc1F` [A202, 4-{[(3S)-9-(cyclohexylmethyl)-5-{[4-(3-fluoro-4-methoxyphenyl)piperazin-1-yl]sulfonyl}-3-methyl-1,5,9-triazacyclododecan-1-yl]sulfonyl}-N,N-dimethylaniline], the IC50 in series [1] is 0.176 µM; in [4] it was 0.13 µM; in series [5] it was 2.05 µM; in series [9] it was 0.0566 µM. Further, the “Liver Microsome Stability-% Left … (%) Mouse” value in series [2] was 55.0%. The “Liver Microsome Stability-% Left … (%) Human” value in series [3] is listed as 13.3%. Moreover, the “Liver Microsome Stability-% Left … (%) Monkey” value in [6] was found to be 38.3%. Besides, the “Liver Microsome Stability-% Left … (%) Rat” value in series [7] came to 50.8%. In addition, the EC50 in series [8] was more than 25 µM; in [10], 2.91 µM.

Take `C[C@H]1CN(S(=O)(=O)c2ccc(N(C)C)cc2)CCCN(CC2CCC(F)(F)CC2)CCCN(S(=O)(=O)N2CCc3cc(Cl)ccc3C2)C1` [A185, 4-{[(3S)-5-[(6-chloro-1,2,3,4-tetrahydroisoquinolin-2-yl)sulfonyl]-9-[(4,4-difluorocyclohexyl)methyl]-3-methyl-1,5,9-triazacyclododecan-1-yl]sulfonyl}-N,N-dimethylaniline]: the IC50 in series [1] was 0.0854 µM; in series [4] it was 0.0855 µM; in series [5], 0.573 µM; in [9] it was 0.0432 µM. Also, in series [2], the “Liver Microsome Stability-% Left … (%) Mouse” value was found to be 30.1%. Also, the “Liver Microsome Stability-% Left … (%) Human” value in [3] came out at 21.8%. For the same compound, in [6], the “Liver Microsome Stability-% Left … (%) Monkey” value was determined as 10.0%. The “Liver Microsome Stability-% Left … (%) Rat” value in [7] turned out to be 37.8%. Also, the concentration giving a half-maximal response (EC50) in series [8] was more than 25 µM; in [10], 1.47 µM.
